Results published in patent publication US11485708B2, “Compounds for treatment of PD-L1 diseases” (CHEMOCENTRYX, INC., priority 2019, dated 2022).

Molecular target: human PD-L1 / Human PD-1 (Homo sapiens (Human), UniProt Q9NZQ7)
Experiment: Enzyme-Linked Immunosorbent Assay (ELISA), PD-1/PD-L1 binding
Conditions: plates coated with human PD-L1, biotinylated human PD-1 added
Protocol: 96 Well plates were coated with 1 μg/mL of human PD-L1 (obtained from R&D) in PBS overnight at 4′° C. The wells were then blocked with 2% BSA in PBS (W/V) with 0.05% TWEEN-20 for 1 hour at 37′° C. The plates were washed 3 times with PBS/0.05% TWEEN-20 and the compounds were serial diluted (1:5) in dilution medium and added to the ELISA plates. Human PD-1 and biotin 0.3 μg/mL (ACRO Biosystems) were added and incubated for 1 hour at 37° C. then washed 3 times with PBS/0.05% TWEEN-20. A second block was performed with 2% BSA in PBS (WNV)/0.05% TWEEN-20 for 10 min at 37° C. and the plates were washed 3 times with PBS/0.05% TWEEN-20. Streptavidin-HIRP was added for 1 hour at 37° C. then the plates were washed 3 times with PBS/0.05% TWEEN-20. TMB substrate was added and reacted for 20 min at 37° C. A stop solution (2 N aqueous H2SO4) was added. The absorbance was read at 450 nm using a micro-plate spectrophotometer.

Sequence of human PD-L1 / Human PD-1 (Q9NZQ7 19-239): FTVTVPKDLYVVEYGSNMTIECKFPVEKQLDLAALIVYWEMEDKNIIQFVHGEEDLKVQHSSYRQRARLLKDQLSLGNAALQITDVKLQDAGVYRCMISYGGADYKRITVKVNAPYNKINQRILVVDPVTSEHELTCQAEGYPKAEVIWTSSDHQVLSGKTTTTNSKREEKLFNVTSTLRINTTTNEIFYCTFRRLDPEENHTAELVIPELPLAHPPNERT

SMILES | IC50 [nM]
COc1cc(-c2cccc(-c3cccc(-c4cc(F)c(CN(C)C[C@@H]5CCC(=O)N5)c(OC)c4)c3C)c2C)cc(F)c1CN(C)C[C@@H]1CCC(=O)N1 [Compd 1.047] | < 1000
COc1cc(-c2cccc(-c3cccc(-c4cc(F)c(CNC(C)C)c(OC)c4)c3C)c2C)cc(F)c1CNC(C)C [Compd 1.048] | < 1000
COc1cc(-c2cccc(-c3cccc(-c4cc(F)c(CNCCCCO)c(OC)c4)c3C)c2C)cc(F)c1CNCCCCO [Compd 1.049] | < 1000
COc1cc(-c2cccc(-c3cccc(-c4cc(F)c(CN(C)C)c(OC)c4)c3C)c2C)cc(F)c1CNCCO [Compd 1.050, 2-(((4′″-((dimethylamino)methyl)-3,3′″-difluoro-5,5′″-dimethoxy-2′,2″-dimethyl-[1,1′:3′,1″:3″,1′″-quaterphenyl]-4-yl)methyl)amino)ethan-1-ol] | < 1000
COc1cc(-c2cccc(-c3cccc(-c4cc(F)c(CNCCO)c(OC)c4)c3C)c2C)cc(F)c1CNCCO [Compd 1.051, 2,2′-(((3,3′″-difluoro-5,5′″-dimethoxy-2′,2″-dimethyl-[1,1′:3′,1″:3″,1′″-quaterphenyl]-4,4′″-diyl)bis(methylene))bis(azanediyl))bis(ethan-1-ol)] | < 1000
CNCc1c(F)cc(-c2cccc(-c3cccc(-c4cc(F)c(CNC)c(OC)c4)c3C)c2C)cc1OC [Compd 1.053] | < 1000
COc1cc(-c2cccc(-c3cccc(-c4cc(F)c(CNCCCCC(=O)O)c(OC)c4)c3C)c2C)cc(F)c1CNCCCCC(=O)O [Compd 1.054] | < 1000
COc1cc(-c2cccc(-c3cccc(-c4cc(F)c(CNCCC(=O)O)c(OC)c4)c3C)c2C)cc(F)c1CNCCC(=O)O [Compd 1.055] | < 1000
COc1cc(-c2cccc(-c3cccc(-c4cc(F)c(CNCCCO)c(OC)c4)c3C)c2C)cc(F)c1CNCCCO [Compd 1.056] | < 1000
COC(=O)CCCN(C)Cc1c(F)cc(-c2cccc(-c3cccc(-c4cc(F)c(CN(C)CCCC(=O)OC)c(OC)c4)c3C)c2C)cc1OC [Compd 1.057] | < 1000
COc1cc(-c2cccc(-c3cccc(-c4cc(F)c(CN(C)CCCC(=O)O)c(OC)c4)c3C)c2C)cc(F)c1CN(C)CCCC(=O)O [Compd 1.058] | < 1000
COc1cc(-c2cccc(-c3cccc(-c4cc(F)c(CN(C)C)c(OC)c4)c3C)c2C)cc(F)c1CN(C)C [Compd 1.059] | < 1000
COc1cc(-c2cccc(-c3cccc(OCCCN4[C@H](C)CC[C@H]4C)c3C)c2C)cc2c1CNCC2 [Compd 1.060] | < 1000
Cc1c(OCCCN2[C@H](C)CC[C@H]2C)cccc1-c1cccc(-c2cc(F)c(CNCCCC(=O)O)c(F)c2)c1C [Compd 1.061] | < 1000
COc1cc(-c2cccc(-c3cccc(-c4cc(F)c(CNCC(=O)O)c(OC)c4)c3C)c2C)cc(F)c1CNCC(=O)O [Compd 1.062] | < 1000
COc1cc(-c2cccc(-c3cccc(-c4cc(F)c(CNCCCC(=O)O)c(OC)c4)c3C)c2C)cc(F)c1CNCCCC(=O)O [Compd 1.063, 4,4′-(((3,3′″-difluoro-5,5′″-dimethoxy-2′,2″-dimethyl-[1,1′:3′,1″:3″,1′″-quaterphenyl]-4,4′″-diyl)bis(methylene))bis(azanediyl))dibutyric acid] | < 1000
Cc1c(OCCCN2[C@H](C)CC[C@H]2C)cccc1-c1cccc(-c2ccc3c(c2)CC(C(=O)O)NC3)c1C (stereo partly drawn) [Compd 1.064] | 1000 to 10000
COc1cc(CNCCCC(=O)O)cc(-c2cccc(-c3cccc(OCCCN4[C@H](C)CC[C@H]4C)c3C)c2C)c1 [Compd 1.065] | 1000 to 10000
COc1cc(-c2cccc(-c3cccc(OCCCN4[C@H](C)CC[C@H]4C)c3C)c2C)ccc1CNCCCC(=O)O [Compd 1.066] | < 1000
COc1cc(-c2cccc(-c3cccc(OCCCN4[C@H](C)CC[C@H]4C)c3C)c2C)cc(F)c1CNCCCC(=O)O [Compd 1.067] | < 1000
Cc1c(OCCCN2[C@H](C)CC[C@H]2C)cccc1-c1cccc(-c2ccc3c(c2)CC(C(=O)O)NC3)c1C (stereo partly drawn) [Compd 1.068] | < 1000
Cc1c(OCCCN2[C@H](C)CC[C@H]2C)cccc1-c1cccc(-c2ccc3c(c2)CC(CO)NC3)c1C (stereo partly drawn) [Compd 1.069] | < 1000
Cc1c(OCCCN2CCC(F)CC2)cccc1-c1cccc(-c2ccc(CN3CCCC[C@H]3C(=O)O)cc2)c1C [Compd 1.071] | 1000 to 10000
COC(=O)[C@@H]1CCCCN1Cc1ccc(-c2cccc(-c3cccc(OCCCN4CCC(F)CC4)c3C)c2C)cc1 [Compd 1.072] | 1000 to 10000
COc1cc(-c2cccc(-c3cccc(OCCCN4[C@H](C)CC[C@H]4C)c3C)c2C)ccc1CN(C)C [Compd 1.073] | < 1000
Cc1c(OCCCN2[C@H](C)CC[C@H]2C)cccc1-c1cccc(-c2ccc(CN(C)C)c(OC(C)C)c2)c1C [Compd 1.074] | < 1000
CCOc1cc(-c2cccc(-c3cccc(OCCCN4[C@H](C)CC[C@H]4C)c3C)c2C)ccc1CN(C)C [Compd 1.075] | < 1000

SMILES | IC50 [nM]
C=Cc1c(-c2ccc3c(c2)CCNC3)cccc1-c1cccc(OCCCN2CCC2(C)C)c1C [Compd 1.076, 6-(3′-(3-(2,2-dimethylazetidin-1-yl)propoxy)-2′-methyl-2-vinyl-[1,1′-biphenyl]-3-yl)-1,2,3,4-tetrahydroisoquinoline] | < 1000
Cc1c(OCCCN2CCC(F)CC2)cccc1-c1cccc(-c2ccc(CN)cc2)c1C [Compd 1.077] | < 1000
COc1cc(-c2cccc(-c3cccc(OCCCN4CCC(F)CC4)c3C)c2C)cc(F)c1CN(C)C [Compd 1.078] | < 1000
COc1cc(-c2cccc(-c3cccc(OCCCN4CCC(F)CC4)c3C)c2C)cc(OC)c1CN(C)C [Compd 1.079] | 1000 to 10000
Cc1c(OCCCN2CCC(F)CC2)cccc1-c1cccc(-c2ccc3c(c2)OCCNC3)c1C [Compd 1.080] | < 1000
Cc1c(OCCCN2CCC(F)CC2)cccc1-c1cccc(-c2ccc(CN(C)C)c(Cl)c2)c1C [Compd 1.081] | < 1000
Cc1c(OCCCN2CCC(F)CC2)cccc1-c1cccc(-c2ccc(CN)cc2F)c1C [Compd 1.082] | < 1000
Cc1cc(-c2cccc(-c3cccc(OCCCN4CCC(F)CC4)c3C)c2C)ccc1CN(C)C [Compd 1.083] | < 1000
Cc1c(OCCCN2CCC(F)CC2)cccc1-c1cccc(-c2ccc(CN(C)C)c(C(F)(F)F)c2)c1C [Compd 1.084] | 1000 to 10000
Cc1c(OCCCN2CCC2(C)C)cccc1-c1cccc(-c2ccc3c(c2)CCNC3)c1C(F)(F)F [Compd 1.085] | 1000 to 10000
Cc1c(OCCCN2CCC(F)CC2)cccc1-c1cccc(-c2ccc(CN)c(F)c2)c1C [Compd 1.086] | < 1000
Cc1c(OCCCN2CCC(F)CC2)cccc1-c1cccc(-c2ccc3c(c2C)CCNC3)c1C [Compd 1.087] | 1000 to 10000
COc1c(-c2ccc3c(c2)CCNC3)cccc1-c1cccc(OCCCN2CCC2(C)C)c1C [Compd 1.088, 6-(3′-(3-(2,2-dimethylazetidin-1-yl)propoxy)-2-methoxy-2′-methyl-[1,1′-biphenyl]-3-yl)-1,2,3,4-tetrahydroisoquinoline] | < 1000
Cc1c(OCCCN2CCC2(C)C)cccc1-c1cccc(-c2ccc3c(c2)CCNC3)c1Cl [Compd 1.089, 6-(3′-(3-(2,2-dimethylazetidin-1-yl)propoxy)-2-chloro-2′-methyl-[1,1′-biphenyl]-3-yl)-1,2,3,4-tetrahydroisoquinoline] | < 1000
Cc1c(OCCCN2CCC2(C)C)cccc1-c1cccc(-c2ccc3c(c2)CCNC3)c1F [Compd 1.090, 6-(3′-(3-(2,2-dimethylazetidin-1-yl)propoxy)-2-fluoro-2′-methyl-[1,1′-biphenyl]-3-yl)-1,2,3,4-tetrahydroisoquinoline] | < 1000
Cc1c(-c2ccc3c(c2)CCNC3)cccc1-c1cccc(OCCCN2[C@H](C)CC[C@H]2C)c1F [Compd 1.091] | < 1000
Cc1c(-c2ccc3c(c2)CCNC3)cccc1-c1cccc(OCCCN2[C@H](C)CC[C@H]2C)c1Cl [Compd 1.092] | < 1000
COc1cc(CN(C)C)ccc1-c1cccc(-c2cccc(OCCCN3CCC(F)CC3)c2C)c1C [Compd 1.093] | 1000 to 10000
COc1cc(-c2cccc(-c3cccc(OCCCN4CCC(F)CC4)c3C)c2C)ccc1CN(C)C [Compd 1.094] | < 1000
Cc1c(OCCCN2CCC(F)CC2)cccc1-c1cccc(-c2ccc(CN(C)C)cc2Cl)c1C [Compd 1.095] | 1000 to 10000
Cc1c(OCCCN2CCC(F)CC2)cccc1-c1cccc(-c2ccc(CN)cc2Cl)c1C [Compd 1.096] | 1000 to 10000
Cc1c(OCCCN2[C@H](C)CC[C@H]2C)cccc1-c1cccc(-c2ccc(CNCCC(=O)O)cc2)c1C [Compd 1.097] | < 1000
Cc1c(OCCCN2[C@H](C)CC[C@H]2C)cccc1-c1cccc(-c2ccc([C@H](C)N)cc2)c1C [Compd 1.098] | < 1000
Cc1c(OCCCN2[C@H](C)CC[C@H]2C)cccc1-c1cccc(-c2ccc([C@@H](C)N)cc2)c1C [Compd 1.099] | < 1000
Cc1c(OCCCN2[C@H](C)CC[C@H]2C)cccc1-c1cccc(-c2ccc(CNCCCC(=O)O)cc2)c1C [Compd 1.100] | < 1000
Cc1c(OCCCN2[C@H](C)CC[C@H]2C)cccc1-c1cccc(-c2ccc(CNCC(=O)O)cc2)c1C [Compd 1.101] | < 1000
Cc1c(OCCCN2CCC2(C)C)cccc1-c1cccc(-c2ccc3c(c2)CCNC3)c1C#N [Compd 1.102, 3′-(3-(2,2-dimethylazetidin-1-yl)propoxy)-2′-methyl-3-(1,2,3,4-tetrahydroisoquinolin-6-yl)-[1,1′-biphenyl]-2-carbonitrile] | < 1000
